Our source for the inhibition and Ki values is patent US8742106B2 (Novartis AG, priority 2009, dated 2014).

Molecules are shown by their SMILES.

The target of one assay is human orexin 1 receptors (Homo sapiens (Human), UniProt O43613). Briefly: Calcium Accumulation in Cells (FLIPR), antagonism of orexin A. Type of assay: cell-based. Conditions: for inhibition at 10 µM: measured at a concentration of 10 μM of compound, read-out: FLIPR hOx1R % inhibition value; for Ki: antagonism of orexin A, Cheng-Prusoff corrected, read-out: FLIPR hOx1R Ki.

Another assay concerns the target human orexin 2 receptors (Homo sapiens (Human), UniProt O43614). Described as above. Type of assay: cell-based. Conditions: for Ki: antagonism of orexin A, Cheng-Prusoff corrected, read-out: FLIPR hOx2R Ki; for inhibition at 10 µM: measured at a concentration of 10 μM of compound, read-out: FLIPR hOx2R % inhibition value. The method in brief:
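Antagonism was measured as block of orexin A-evoked Ca²⁺ fluorescence (FLIPR), with orexin A added one hour after test compound (usually 10^−9–10^−5 M), which was first read alone for agonist activity. Human orexin 2 receptor cells were dye-loaded with 2 μM Fluo4-AM and 0.1 mM probenecid for 1 h.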

Sequence of human orexin 2 receptors (O43614 whole entry): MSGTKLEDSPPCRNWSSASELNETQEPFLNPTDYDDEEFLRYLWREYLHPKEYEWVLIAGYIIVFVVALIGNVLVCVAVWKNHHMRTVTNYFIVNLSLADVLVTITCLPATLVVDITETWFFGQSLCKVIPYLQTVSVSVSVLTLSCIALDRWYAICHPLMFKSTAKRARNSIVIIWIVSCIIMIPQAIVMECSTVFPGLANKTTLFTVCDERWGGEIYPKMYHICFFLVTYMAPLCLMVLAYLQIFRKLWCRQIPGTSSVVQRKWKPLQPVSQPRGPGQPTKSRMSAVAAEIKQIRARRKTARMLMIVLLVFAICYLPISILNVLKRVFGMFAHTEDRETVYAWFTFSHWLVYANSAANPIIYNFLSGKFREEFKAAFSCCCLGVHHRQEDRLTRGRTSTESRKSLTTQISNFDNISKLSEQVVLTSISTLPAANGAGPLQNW
Sequence of human orexin 1 receptors (O43613 whole entry): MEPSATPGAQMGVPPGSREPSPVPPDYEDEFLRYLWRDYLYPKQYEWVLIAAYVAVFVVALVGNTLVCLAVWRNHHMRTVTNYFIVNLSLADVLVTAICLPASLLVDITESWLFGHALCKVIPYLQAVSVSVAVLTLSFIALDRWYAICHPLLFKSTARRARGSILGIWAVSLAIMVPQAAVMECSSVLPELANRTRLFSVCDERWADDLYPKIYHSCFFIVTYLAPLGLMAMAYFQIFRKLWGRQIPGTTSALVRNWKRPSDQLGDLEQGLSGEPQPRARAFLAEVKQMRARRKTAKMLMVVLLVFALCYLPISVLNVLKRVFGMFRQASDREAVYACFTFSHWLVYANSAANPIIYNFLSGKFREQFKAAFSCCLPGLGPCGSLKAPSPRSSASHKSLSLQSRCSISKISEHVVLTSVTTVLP

As for `Cc1cc(OCC(=O)NCCc2c[nH]c3ccccc23)nc2c1c(C1CC1)nn2C` [Example 7.5, N-(2-(1H-indol-3-yl)ethyl)-2-(3-cyclopropyl-1H-dimethyl-1H-pyrazolo[3,4-b]pyridin-6-yloxy)acetamide], on human orexin 1 receptors, the inhibition at 10 µM is less than 10%. The Ki on human orexin 2 receptors was 479 nM.
Turning to `Cc1cc(OCC(=O)NCC2CCCCC2)nc2c1c(C1CC1)nn2C` [Example 7.6, N-(cyclohexylmethyl)-2-(3-cyclopropyl-1,4-dimethyl-1H-pyrazolo[3,4-b]pyridin-6-yloxy)acetamide], the inhibition at 10 µM was 18% at human orexin 1 receptors and less than 10% at human orexin 2 receptors.
In the case of `Cc1cccc(C(C)NC(=O)COc2cc(C)c3c(C4CC4)nn(C)c3n2)n1` (centres unmarked) [Example 7.7, 2-(3-cyclopropyl-1,4-dimethyl-1H-pyrazolo[3,4-b]pyridin-6-yloxy)-N-(1-(6-methylpyridin-2-yl)ethyl)acetamide], the inhibition at 10 µM is 32% on human orexin 1 receptors and 21% on human orexin 2 receptors.
As for `Cc1cc(OCC(=O)NC2CCCc3ncccc32)nc2c1c(C1CC1)nn2C` (centres unmarked) [Example 7.8, 2-(3-cyclopropyl-1H-dimethyl-1H-pyrazolo[3,4-b]pyridin-6-yloxy)-N-(5,6,7,8-tetrahydroquinolin-5-yl)acetamide], the inhibition at 10 µM at human orexin 1 receptors was 26%; on human orexin 2 receptors it was 20%.
In the case of `COc1ccc2c(c1)C(NC(=O)COc1cc(C)c3c(C4CC4)nn(C)c3n1)CC2` (centres unmarked) [Example 7.9, 2-(3-cyclopropyl-1,4-dimethyl-1H-pyrazolo[3,4-b]pyridin-6-yloxy)-N-(6-methoxy-2,3-dihydro-1H-inden-1-yl)acetamide], the values for the inhibition constant Ki on human orexin 1 receptors and at human orexin 2 receptors were 877 nM and 742 nM, respectively.
For the molecule `Cc1cc(OCC(=O)NCc2cccc3cnn(C)c23)nc2c1c(C1CC1)nn2C` [Example 7.10, 2-(3-cyclopropyl-1,4-dimethyl-1H-pyrazolo[3,4-b]pyridin-6-yloxy)-N-((1-methyl-1H-indazol-7-yl)methyl)acetamide], the values for the inhibition at 10 µM on human orexin 1 receptors and at human orexin 2 receptors were 34% and 40%, respectively.
Take `COc1cccc([C@H](C)NC(=O)COc2cc(C)c3c(C4CC4)nn(C)c3n2)c1` [Example 7.12, (S)-2-(3-cyclopropyl-1,4-dimethyl-1H-pyrazolo[3,4-b]pyridin-6-yloxy)-N-(1-(3-methoxyphenyl)ethyl)acetamide]: the Ki on human orexin 1 receptors worked out at 736 nM. Besides, the inhibition at 10 µM at human orexin 2 receptors turned out to be 43%.
In the case of `COc1ccccc1[C@H](C)NC(=O)COc1cc(C)c2c(C3CC3)nn(C)c2n1` [Example 7.13, (S)-2-(3-cyclopropyl-1,4-dimethyl-1H-pyrazolo[3,4-b]pyridin-6-yloxy)-N-(1-(2-methoxyphenyl)ethyl)acetamide], the Ki at human orexin 1 receptors is 1540 nM; at human orexin 2 receptors it was 450 nM.
As for `Cc1cc(OCC(=O)NCc2ccc(Cl)nc2)nc2c1c(C1CC1)nn2C` [Example 7.14, N-((6-chloropyridin-3-yl)methyl)-2-(3-cyclopropyl-1,4-dimethyl-1H-pyrazolo[3,4-b]pyridin-6-yloxy)acetamide], the inhibition at 10 µM on human orexin 1 receptors stood at 31%; at human orexin 2 receptors, 20%.
Turning to `Cc1cc(OCC(=O)NCc2cccc3[nH]ncc23)nc2c1c(C1CC1)nn2C` [Example 7.15, N-((1H-indazol-4-yl)methyl)-2-(3-cyclopropyl-1,4-dimethyl-1H-pyrazolo[3,4-b]pyridin-6-yloxy)acetamide], the inhibition at 10 µM at human orexin 1 receptors is 26%; on human orexin 2 receptors, 18%.
As for `COc1ccc(CNC(=O)COc2cc(C)c3c(C4CC4)nn(C)c3n2)cc1Cl` [Example 7.16, N-(3-chloro-4-methoxybenzyl)-2-(3-cyclopropyl-1,4-dimethyl-1H-pyrazolo[3,4-b]pyridin-6-yloxy)acetamide], the inhibition constant Ki on human orexin 1 receptors is 3630 nM; at human orexin 2 receptors, 1030 nM.
Regarding `Cc1cc(OCC(=O)NC(C)c2ccc3[nH]ccc3c2)nc2c1c(C1CC1)nn2C` (centres unmarked) [Example 7.17, N-(1-(1H-indol-5-yl)ethyl)-2-(3-cyclopropyl-1,4-dimethyl-1H-pyrazolo[3,4-b]pyridin-6-yloxy)acetamide], the Ki on human orexin 1 receptors amounted to 414 nM; on human orexin 2 receptors, 94 nM.
Consider `Cc1cccnc1CNC(=O)COc1cc(C)c2c(C3CC3)nn(C)c2n1` [Example 7.18, 2-(3-cyclopropyl-1,4-dimethyl-1H-pyrazolo[3,4-b]pyridin-6-yloxy)-N-((3-methylpyridin-2-yl)methyl)acetamide], for which the values for the inhibition at 10 µM on human orexin 1 receptors and at human orexin 2 receptors were less than 10% and 11%, respectively.
Turning to `COc1ccc(C(C)NC(=O)COc2cc(C)c3c(C4CC4)nn(C)c3n2)cc1F` (centres unmarked) [Example 7.19, 2-(3-cyclopropyl-1,4-dimethyl-1H-pyrazolo[3,4-b]pyridin-6-yloxy)-N-(1-(3-fluoro-4-methoxy-phenyl)ethyl)acetamide], the results for the inhibition constant (Ki) on human orexin 1 receptors and on human orexin 2 receptors were 2620 nM and 674 nM, respectively.
`Cc1cc(OCC(=O)NC(C)c2cnn(C)c2)nc2c1c(C1CC1)nn2C` (centres unmarked) [Example 7.20, 2-(3-cyclopropyl-1,4-dimethyl-1H-pyrazolo[3,4-b]pyridin-6-yloxy)-N-(1-(1-methyl-1H-pyrazol-4-yl)ethyl)acetamide]: the results for the inhibition at 10 µM on human orexin 1 receptors and on human orexin 2 receptors were 34% and 31%, respectively.
On to `Cc1ccnc(C(C)NC(=O)COc2cc(C)c3c(C4CC4)nn(C)c3n2)c1` (centres unmarked) [Example 7.21, 2-(3-cyclopropyl-1,4-dimethyl-1H-pyrazolo[3,4-b]pyridin-6-yloxy)-N-(1-(4-methylpyridin-2-yl)ethyl)acetamide], for which the inhibition at 10 µM at human orexin 1 receptors is less than 10%; at human orexin 2 receptors it was 22%.
`Cc1csc(C(C)NC(=O)COc2cc(C)c3c(C4CC4)nn(C)c3n2)n1` (centres unmarked) [Example 7.22, 2-(3-cyclopropyl-1,4-dimethyl-1H-pyrazolo[3,4-b]pyridin-6-yloxy)-N-(1-(4-methylthiazol-2-yl)ethyl)acetamide]: the inhibition at 10 µM on human orexin 1 receptors was found to be 40%; at human orexin 2 receptors it was 32%.
Turning to `Cc1cc(OCC(=O)NC(C)c2nc3ccccc3s2)nc2c1c(C1CC1)nn2C` (centres unmarked) [Example 7.23, N-(1-(benzo[d]thiazol-2-yl)ethyl)-2-(3-cyclopropyl-1,4-dimethyl-1H-pyrazolo[3,4-b]pyridin-6-yloxy)acetamide], the inhibition constant (Ki) on human orexin 1 receptors was 564 nM; on human orexin 2 receptors, 150 nM.
With `Cc1cc(OCC(=O)NC2CCCc3c2cnn3C)nc2c1c(C1CC1)nn2C` (centres unmarked) [Example 7.24, 2-(3-cyclopropyl-1,4-dimethyl-1H-pyrazolo[3,4-b]pyridin-6-yloxy)-N-(1-methyl-4,5,6,7-tetrahydro-1H-indazol-4-yl)acetamide], the inhibition at 10 µM at human orexin 1 receptors was determined as 28%; at human orexin 2 receptors, 25%.
Regarding `Cc1cc(OCC(=O)NC(C)c2cn3ccsc3n2)nc2c1c(C1CC1)nn2C` (centres unmarked) [Example 7.25, 2-(3-cyclopropyl-1,4-dimethyl-1H-pyrazolo[3,4-b]pyridin-6-yloxy)-N-(1-(imidazo[2,1-b]thiazol-6-yl)ethyl)acetamide], the Ki came to 1560 nM at human orexin 1 receptors and 584 nM on human orexin 2 receptors.
For `Cc1cc(OCC(=O)N[C@@H](C)CCc2ccccc2)nc2c1c(C1CC1)nn2C` [Example 7.26, (S)-2-(3-cyclopropyl-1,4-dimethyl-1H-pyrazolo[3,4-b]pyridin-6-yloxy)-N-(4-phenylbutan-2-yl)acetamide], the Ki on human orexin 1 receptors is 1640 nM; on human orexin 2 receptors it was 184 nM.
For `COc1ccc(CNC(=O)COc2cc(C)c3c(C4CC4)nn(C)c3n2)c(OC)c1` [Example 7.27, 2-(3-cyclopropyl-1,4-dimethyl-1H-pyrazolo[3,4-b]pyridin-6-yloxy)-N-(2,4-dimethoxybenzyl)acetamide], the inhibition at 10 µM at human orexin 1 receptors is 48%. Besides, at human orexin 2 receptors, the Ki is 472 nM.
As to `Cc1ccc2c(c1)C(NC(=O)COc1cc(C)c3c(C4CC4)nn(C)c3n1)CC2` (centres unmarked) [Example 7.28, 2-(3-cyclopropyl-1,4-dimethyl-1H-pyrazolo[3,4-b]pyridin-6-yloxy)-N-(6-methyl-2,3-dihydro-1H-inden-1-yl)acetamide], the inhibition at 10 µM on human orexin 1 receptors was found to be 34%; on human orexin 2 receptors, 37%.
In the case of `Cc1cccc(C(C)NC(=O)COc2cc(C)c3c(C4CC4)nn(C)c3n2)c1` (centres unmarked) [Example 7.29, 2-(3-cyclopropyl-1,4-dimethyl-1H-pyrazolo[3,4-b]pyridin-6-yloxy)-N-(1-m-tolylethyl)acetamide], the figures for the inhibitory constant (Ki) on human orexin 1 receptors and at human orexin 2 receptors were 1800 nM and 900 nM, respectively.
In the case of `Cc1cc(OCC(=O)NC(C)c2nc3ccc(Cl)cc3s2)nc2c1c(C1CC1)nn2C` (centres unmarked) [Example 7.30, N-(1-(6-chlorobenzo[d]thiazol-2-yl)ethyl)-2-(3-cyclopropyl-1,4-dimethyl-1H-pyrazolo[3,4-b]pyridin-6-yloxy)acetamide], the Ki on human orexin 1 receptors was 938 nM. Besides, the inhibition at 10 µM on human orexin 2 receptors came to 26%.
For the molecule `Cc1ccc2c(cnn2C)c1CNC(=O)COc1cc(C)c2c(C3CC3)nn(C)c2n1` [Example 7.31, 2-(3-cyclopropyl-1,4-dimethyl-1H-pyrazolo[3,4-b]pyridin-6-yloxy)-N-((1,5-dimethyl-1H-indazol-4-yl)methyl)acetamide], the Ki came out at 857 nM on human orexin 1 receptors and 833 nM at human orexin 2 receptors.
Regarding `COc1cccc2c1CCCC2NC(=O)COc1cc(C)c2c(C3CC3)nn(C)c2n1` (centres unmarked) [Example 7.32, 2-(3-cyclopropyl-1,4-dimethyl-1H-pyrazolo[3,4-b]pyridin-6-yloxy)-N-(5-methoxy-1,2,3,4-tetrahydronaphthalen-1-yl)acetamide], the figures for the Ki at human orexin 1 receptors and at human orexin 2 receptors were 138 nM and 301 nM, respectively.
Regarding `CCOc1ccc(CNC(=O)COc2cc(C)c3c(C4CC4)nn(C)c3n2)cc1` [Example 7.33, 2-(3-cyclopropyl-1,4-dimethyl-1H-pyrazolo[3,4-b]pyridin-6-yloxy)-N-(4-ethoxybenzyl)acetamide], the Ki at human orexin 1 receptors came out at 3170 nM. Also, the inhibition at 10 µM on human orexin 2 receptors was 24%.

One may read the inhibition as the drop in the measured response relative to a control, in per cent. As a reminder, the Ki is the dissociation constant of the complex between target and ligand, obtained from inhibition or displacement.
